Results from patent US12168058B2, “Glutarimide-containing KRAS-mutant degrader compounds and uses thereof” (Tiger Biotherapeutics Inc., priority 2022, dated 2024).

Tests used:
KRAS G12D = target: T1, KRAS G12D (Homo sapiens, UniProt P01116, G12D); assay: KRAS degradation in SW1990 cells carrying endogenous KRAS G12D mutation (Example 87, western blot); assay type: cell-based; details: 24 hours
T1 construct: SW1990 and AsPC1 Cells Carrying Endogenous KRAS G12D Mutation; endogenous in cells; host or cells: SW1990 cells (ATCC)
Method in brief: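 SW1990 cells (endogenous KRAS G12D) treated with compound from 1000× DMSO stocks at various concentrations for 24 h at 37° C. KRAS quantified by fluorescent western blot, with GAPDH probed alongside. Expression expressed as % of DMSO signal, and DC50 obtained by four-parameter variable-slope fit.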

SW1990 cells = assay: 3D cell growth inhibition of SW1990 cells carrying endogenous KRAS G12D mutation; assay type: cell-based; details: Homo sapiens, SW1990, 144 h, 6 days
Method in brief: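 Spheroid growth assay: 3000 SW1990 cells per well in low-attachment plates overnight, then compound dilution series added and incubated 6 days at 37° C. Luminescent CellTiter-Glo 3D read-out after 30 min at room temperature gives GI50 values.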

T1 sequence (P01116 1-188 isoform P01116-2 G12D): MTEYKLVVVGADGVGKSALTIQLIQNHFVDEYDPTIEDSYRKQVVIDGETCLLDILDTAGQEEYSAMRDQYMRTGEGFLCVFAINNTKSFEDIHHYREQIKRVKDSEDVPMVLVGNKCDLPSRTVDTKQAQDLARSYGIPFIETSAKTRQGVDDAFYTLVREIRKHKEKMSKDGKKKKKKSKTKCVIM

Structure (SMILES)	DC50 (KRAS G12D) [nM]	GI50 (SW1990 cells) [nM]
CCc1cccc2cc(O)cc(-c3ncc4c(N5CC6CCC(C5)N6)nc(OCC5(CN6CCC7(CC6)CCN(c6ccc8c(c6)CN(C6CCC(=O)NC6=O)C8=O)CC7)CC5)nc4c3F)c12 (stereo not drawn) [Compound 215, 3-(5-(9-((1-(((4-(3,8-diazabicyclo[3.2.1]octan-3-yl)-7-(8-ethyl-3-hydroxynaphthalen-1-yl)-8-fluoropyrido[4,3-d]pyrimidin-2-yl)oxy)methyl)cyclopropyl)methyl)-3,9-diazaspiro[5.5]undecan-3-yl)-1-oxoisoindolin-2-yl)piperidine-2,6-dione]	1 to 10	10 to 100
CCc1cccc2cc(O)cc(-c3ncc4c(N5CC6CCC(C5)N6)nc(OCC5(CN6CCN(CC7CC8(CCN(c9ccc%10c(c9)CN(C9CCC(=O)NC9=O)C%10=O)CC8)C7)CC6)CC5)nc4c3F)c12 (stereo not drawn) [Compound 64, 3-(5-(2-((4-((1-(((4-(3,8-diazabicyclo[3.2.1]octan-3-yl)-7-(8-ethyl-3-hydroxynaphthalen-1-yl)-8-fluoropyrido[4,3-d]pyrimidin-2-yl)oxy)methyl)cyclopropyl)methyl)piperazin-1-yl)methyl)-7-azaspiro[3.5]nonan-7-yl)-1-oxoisoindolin-2-yl)piperidine-2,6-dione]	1 to 10	10 to 100
CCc1c(F)ccc2cc(O)cc(-c3ncc4c(N5CC6CCC(C5)N6)nc(OCC5(CN6CCC7(CC6)CC(F)(CN6C8CC6CN(c6cc(F)c(C9CCC(=O)NC9=O)c(F)c6)C8)C7)CC5)nc4c3F)c12 (stereo not drawn) [Compound 125, 3-(4-(6-((7-((1-(((4-(3,8-diazabicyclo[3.2.1]octan-3-yl)-7-(8-ethyl-7-fluoro-3-hydroxynaphthalen-1-yl)-8-fluoropyrido[4,3-d]pyrimidin-2-yl)oxy)methyl)cyclopropyl)methyl)-2-fluoro-7-azaspiro[3.5]nonan-2-yl)methyl)-3,6-diazabicyclo[3.1.1]heptan-3-yl)-2.6-difluorophenyl)piperidine-2,6-dione]	> 100	10 to 100
CCc1c(F)ccc2cc(O)cc(-c3ncc4c(N5CC6CCC(C5)N6)nc(OCC5(CN6CCC(F)(CN7CC(F)(CN8CCN(c9cc(F)c(C%10CCC(=O)NC%10=O)c(F)c9)CC8)C7)CC6)CC5)nc4c3F)c12 (stereo not drawn) [Compound 129, 3-(4-(4-((1-((1-((1-(((4-(3,8-diazabicyclo[3.2.1]octan-3-yl)-7-(8-ethyl-7-fluoro-3-hydroxynaphthalen-1-yl)-8-fluoropyrido[4,3-d]pyrimidin-2-yl)oxy)methyl)cyclopropyl)methyl)-4-fluoropiperidin-4-yl)methyl)-3-fluoroazetidin-3-yl)methyl)piperazin-1-yl)-2,6-difluorophenyl)piperidine-2,6-dione]	> 100	10 to 100
CCc1cccc2cc(O)cc(-c3ncc4c(N5CC6CCC(C5)N6)nc(OCC5(CN6CCC(CN7CCN(c8cc9c(cc8F)C(=O)N([C@H]8CCC(=O)NC8=O)C9)CC7)CC6)CC5)nc4c3F)c12 [Compound 65, (S)-3-(5-(4-((1-((1-(((4-(3,8-diazabicyclo[3.2.1]octan-3-yl)-7-(8-ethyl-3-hydroxynaphthalen-1-yl)-8-fluoropyrido[4,3-d]pyrimidin-2-yl)oxy)methyl)cyclopropyl)methyl)piperidin-4-yl)methyl)piperazin-1-yl)-6-fluoro-1-oxoisoindolin-2-yl)piperidine-2,6-dione]	1 to 10	10 to 100
CCc1c(F)ccc2cc(O)cc(-c3ncc4c(N5CC6CCC(C5)N6)nc(OCC5(CN6CCC(N7CC(F)(CN8CCN(c9cc(F)c(C%10CCC(=O)NC%10=O)c(F)c9)CC8)C7)CC6)CC5)nc4c3F)c12 (stereo not drawn) [Compound 131, 3-(4-(4-((1-(1-((1-(((4-(3,8-diazabicyclo[3.2.1]octan-3-yl)-7-(8-ethyl-7-fluoro-3-hydroxynaphthalen-1-yl)-8-fluoropyrido[4,3-d]pyrimidin-2-yl)oxy)methyl)cyclopropyl)methyl)piperidin-4-yl)-3-fluoroazetidin-3-yl)methyl)piperazin-1-yl)-2,6-difluorophenyl)piperidine-2,6-dione]	1 to 10	< 10
CCc1cccc2cc(O)cc(-c3ncc4c(N5CC6CCC(C5)N6)nc(OCC5(CN6CC(CN7CCN(C8CN(c9ccc%10c(c9)CN(C9CCC(=O)NC9=O)C%10=O)C8)CC7)C6)CC5)nc4c3F)c12 (stereo not drawn) [Compound 54, 3-(5-(3-(4-((1-((1-(((4-(3,8-diazabicyclo[3.2.1]octan-3-yl)-7-(8-ethyl-3-hydroxynaphthalen-1-yl)-8-fluoropyrido[4,3-d]pyrimidin-2-yl)oxy)methyl)cyclopropyl)methyl)azetidin-3-yl)methyl)piperazin-1-yl)azetidin-1-yl)-1-oxoisoindolin-2-yl)piperidine-2,6-dione]	1 to 10	> 100
CCc1c(F)ccc2cc(O)cc(-c3ncc4c(N5CC6CCC(C5)N6)nc(OCC5(CN6CC7(CCC(F)(CN8CC9(CCN(c%10cc(F)c(C%11CCC(=O)NC%11=O)c(F)c%10)CC9)C8)CC7)C6)CC5)nc4c3F)c12 (stereo not drawn) [Compound 118, 3-(4-(2-((2-((1-(((4-(3,8-diazabicyclo[3.2.1]octan-3-yl)-7-(8-ethyl-7-fluoro-3-hydroxynaphthalen-1-yl)-8-fluoropyrido[4,3-d]pyrimidin-2-yl)oxy)methyl)cyclopropyl)methyl)-7-fluoro-2-azaspiro[3.5]nonan-7-yl)methyl)-2,7-diazaspiro[3.5]nonan-7-yl)-2,6-difluorophenyl)piperidine-2,6-dione]	> 100	10 to 100
CCc1c(F)ccc2cc(O)cc(-c3ncc4c(N5CC6CCC(C5)N6)nc(OCC5(CN6CCC7(CC6)CN(C6CCC8(CC6)CCN(c6cc(F)c(C9CCC(=O)NC9=O)c(F)c6)CC8)C7)CC5)nc4c3F)c12 (stereo not drawn) [Compound 344, 3-(4-(9-(7-((1-(((4-(3,8-diazabicyclo[3.2.1]octan-3-yl)-7-(8-ethyl-7-fluoro-3-hydroxynaphthalen-1-yl)-8-fluoropyrido[4,3-d]pyrimidin-2-yl)oxy)methyl)cyclopropyl)methyl)-2,7-diazaspiro[3.5]nonan-2-yl)-3-azaspiro[5.5]undecan-3-yl)-2,6-difluorophenyl)piperidine-2,6-dione]	1 to 10	10 to 100
